Assay results reported in paper PMC5609566, “Elucidation of antimicrobial activity and mechanism of action by N-substituted carbazole derivatives” (Bioorganic & Medicinal Chemistry Letters, 2017).
Converted amounts (≈) assume the structure as drawn. Like-named read-outs stand apart in the source and are kept apart here.

How the values were obtained:
[1] = target: T1, Mammalian Ca^2+-ATPase (Oryctolagus cuniculus, UniProt P04191); experiment: Colorimetric ATPase assay, rabbit sarcoplasmic reticulum membranes (SERCA); format: biochemical
T1 construct: from tissue; host or cells: rabbit hind leg muscle, sarcoplasmic reticulum membranes (gift, Aarhus University)
Source text: (§1) To investigate the H^+-ATPase inhibitory effect of the compounds we isolated plasma membranes containing H^+-ATPase from S. cerevisiae and C. albicans cells.[15] Plasma membranes isolated from pig kidney as well as endoplasmic reticulum membranes from rabbit hind leg muscle were used to counter-screen compounds for activity against mammalian Na^+,K^+-ATPase and Ca^2+-ATPase, respectively. Prior to their use, fungal plasma membrane batches were validated by determining the maximum ATP hydrolysis activity, the pH optimum of the ATPase activity, and the sensitivity to inhibition by orthovanadate. ATPase activity was determined by a colorimetric assay that measures the amount of inorganic phosphate liberated over time, as described in Kjellerup et al., 2017.[15] Table 2, Table 3, Table 4 list the IC50 values obtained by measuring the concentration dependence of the ATPase activity for the fifteen carbazole compounds with each of the four membrane preparations.
(§2) Pma1-containing plasma membranes were prepared from S. cerevisiae RS72 yeast cells that had been transformed with the full-length cDNA of the S. cerevisiae plasma membrane H^+-ATPase isoform PMA1 under control of the PMA1 promoter, using the same procedure as described in Kongstad et al., 2014^1. For the preparation of C. albicans membranes, a 100 ml overnight culture grown in YPD (10 g/L yeast extract (BD, Sparks, MD), 20 g/L Bacto peptone (BD), 20 g/L D-(+)-glucose) was transferred to 1 L YPD and grown for a further 7 h at RT with agitation (150 rpm), followed by cell harvesting and subsequent membrane preparation using the same procedure as described in Kongstad et al., 2014^1. […] Rabbit sarcoplasmic reticulum membranes containing Sarco/Endoplasmic Reticulum Ca^2+ ATPase (SERCA) were kindly provided by Dr. Claus E. Olesen and Dr. Jesper V. Møller, Aarhus University and prepared as described in Andersen et al., 1985^2. Pig kidney Na^+,K^+-ATPase was kindly provided by Dr. Natalya Fedosova, Aarhus University and prepared as described in Klodos et al., 2002^3.
(§3) The compound libraries were purchased from Enamine Ltd, Ukraine and Chembridge Corp, USA. ATPase activity was determined by measuring the amount of liberated phosphate from ATP hydrolysis. […] Reactions were initiated by the addition of Na-ATP to a final concentration of 2.5 mM (Pma1 and Na^+,K^+-ATPase) or 5 mM (SERCA), followed by 30 minutes incubation at 30 °C. The amount of liberated phosphate was determined colorimetrically after addition of STOP solution (mixture of L-ascorbic acid, ammonium heptamolybdate tetrahydrate, and HCl to give final concentrations of 65 mM, 2.2 mM, and 189 mM, respectively) with 5 minutes incubation at room temperature (RT) followed by addition of arsenite solution (mixture of NaAsO2, sodium citrate dihydrate, and acetic acid to give final concentrations of 3.1 mM, 28 mM, and 141 mM, respectively). Absorption was measured at 860 nm after an additional 30 minutes incubation at RT.

[2] = target: T2, Mammalian Na^+,K^+-ATPase (Sus scrofa, UniProt P05024); experiment: Colorimetric ATPase assay, pig kidney membranes; format: biochemical; conditions: for IC50: pH 7, n = 3, read-out: ATP hydrolysis IC50 Mammalian Na^+,K^+-ATPase
T2 construct: from tissue; host or cells: pig kidney plasma membranes (gift, Aarhus University; prepared per Klodos et al., 2002)
Source text: as §1, §2, §3

[3] = system: Candida albicans SC5314; experiment: Fungal growth inhibition MIC (MFC); format: cell-based; conditions: for MIC: Candida albicans SC5314, RPMI-1640; for MFC: Candida albicans SC5314, value in brackets
Source text: (§4) We subsequently assessed the carbazole series for antifungal activity, as described in Kjellerup et al., 2017.[15] Table 2, Table 3, Table 4, Table 5 list the minimum inhibitory concentrations (MIC) and the minimum fungicidal concentrations (MFC) of the fifteen compounds tested against the yeasts Saccharomyces cerevisiae, Candida albicans, C. krusei, and two isolates of C. glabrata (a wild-type strain ATCC 90030 and a clinical azole-resistant isolate Cg003 with increased efflux pump expression[19]), and the molds Aspergillus fumigatus and A. flavus. MIC was defined as the lowest concentration inhibiting visual growth of the microorganism in RPMI-1640 media. […] However, in several cases antifungal activity against molds was minimal, Table 5.
(§5) Compound hits from the library screening were evaluated against baker yeast S. cerevisiae and C. albicans (ATCC 90028). The minimum inhibitory concentration (MIC) was defined as the lowest concentration inhibiting visual growth of the microorganism and this was determined in triplicate. Standard errors were typically less than 5%. MICs for synthesized compounds were determined on the following fungal isolates: Saccharomyces cerevisiae (ATCC 9763), Candida albicans (SC5314), Candida krusei (ATCC 6258), Candida glabrata (ATCC 90030), Aspergillus flavus (ATCC MYA-1005) and Aspergillus fumigatus (ATCC 13073), which were purchased from American Type Culture Collection, and C. glabrata strain Cg003, which was kindly provided by Julius Subik, Comenius University in Bratislava, Slovak Republic. Cg003 is a clinical isolate, characterized to be resistant to fluconazole and itraconazole due to overexpression of the multidrug resistance efflux pumps Cdr1p and Cdr2p^5. The fungal growth assay was performed as described in Kjellerup et al., 2017^6.

[4] = system: Candida glabrata ATCC 90030; experiment: Fungal growth inhibition MIC (MFC); format: cell-based; conditions: Nakaseomyces glabratus, ATCC90030, Candida glabrata ATCC 90030 (wild-type); for MIC: RPMI-1640; for MFC: value in brackets
Source text: as §4, §5

[5] = system: Candida glabrata Cg003; experiment: Fungal growth inhibition MIC (MFC); format: cell-based; conditions: Nakaseomyces glabratus, Candida glabrata Cg003 (clinical azole-resistant isolate); for MIC: RPMI-1640; for MFC: value in brackets
Source text: as §4, §5

[6] = system: Candida krusei ATCC 6258; experiment: Fungal growth inhibition MIC (MFC); format: cell-based; conditions: Pichia kudriavzevii, ATCC6258; for MIC: Candida krusei ATCC 6258, RPMI-1640; for MFC: Candida krusei ATCC 6258, value in brackets
Source text: as §4, §5

[7] = system: Saccharomyces cerevisiae ATCC 9763; experiment: Fungal growth inhibition MIC (MFC); format: cell-based; conditions: ATCC9763; for MIC: Saccharomyces cerevisiae ATCC 9763, RPMI-1640; for MFC: Saccharomyces cerevisiae ATCC 9763, value in brackets
Source text: as §4, §5

[8] = pH 7, n = 3, read-out: ATP hydrolysis IC50 Mammalian Ca^2+-ATPase

T1 sequence (P04191 1-994 isoform P04191-2): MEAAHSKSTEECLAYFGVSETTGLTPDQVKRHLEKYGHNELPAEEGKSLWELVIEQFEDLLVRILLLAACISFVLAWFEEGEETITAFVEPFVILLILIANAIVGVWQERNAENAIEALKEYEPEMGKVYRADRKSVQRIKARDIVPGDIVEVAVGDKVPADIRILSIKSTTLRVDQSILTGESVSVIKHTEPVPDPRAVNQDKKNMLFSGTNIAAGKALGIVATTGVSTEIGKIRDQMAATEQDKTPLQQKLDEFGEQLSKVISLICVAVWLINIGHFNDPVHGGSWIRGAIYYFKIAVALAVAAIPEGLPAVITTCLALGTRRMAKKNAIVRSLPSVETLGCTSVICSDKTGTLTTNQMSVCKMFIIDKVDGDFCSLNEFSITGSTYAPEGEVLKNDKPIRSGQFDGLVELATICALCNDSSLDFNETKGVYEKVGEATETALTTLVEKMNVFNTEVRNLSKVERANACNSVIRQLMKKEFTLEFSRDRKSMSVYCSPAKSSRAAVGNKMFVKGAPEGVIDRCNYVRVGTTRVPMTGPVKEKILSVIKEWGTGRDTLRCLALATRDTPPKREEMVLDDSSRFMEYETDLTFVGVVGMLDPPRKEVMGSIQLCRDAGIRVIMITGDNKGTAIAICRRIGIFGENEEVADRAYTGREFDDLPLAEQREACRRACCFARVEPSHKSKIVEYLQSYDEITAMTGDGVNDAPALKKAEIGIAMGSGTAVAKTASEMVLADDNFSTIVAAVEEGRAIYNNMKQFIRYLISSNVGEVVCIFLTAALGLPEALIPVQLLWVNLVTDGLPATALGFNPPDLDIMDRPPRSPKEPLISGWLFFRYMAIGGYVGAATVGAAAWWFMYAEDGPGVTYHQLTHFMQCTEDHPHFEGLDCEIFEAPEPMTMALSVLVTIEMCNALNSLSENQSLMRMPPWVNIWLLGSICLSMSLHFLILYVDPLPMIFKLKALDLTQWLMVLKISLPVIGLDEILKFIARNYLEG

Row | SMILES | IC50 [1] [µM] | IC50 [2] [µM] | MIC [3] [µM] | MFC [3] [µM] | MIC [4] [µM] | MFC [4] [µM] | MIC [5] [µM] | MFC [5] [µM] | MIC [6] [µM] | MFC [6] [µM] | MIC [7] [µM] | MFC [7] [µM] | IC50 [1, 8] [µM] | selectivity among the four ATPases ([2]; lower IC50 value on Na^+,K^+-ATPase)
1 | OC(Cn1ccnc1)Cn1c2ccc(Cl)cc2c2cc(Cl)ccc21 (stereo not shown) [Compound 5, 1-(3,6-dichloro-9H-carbazol-9-yl)-3-(1H-imidazol-1-yl)propan-2-ol] | 10.7 ± 2.2 | 20.4 ± 2.3 | 24 (≈ 8.65 µg/mL) | > 75 | > 75 | > 75 | > 75 | > 75 | > 75 | > 75 | 24 (≈ 8.65 µg/mL) | 75 (≈ 27 µg/mL) | – | –
2 | OC(Cn1cncn1)Cn1c2ccc(Cl)cc2c2cc(Cl)ccc21 (stereo not shown) [Compound 6, 1-(3,6-dichloro-9H-carbazol-9-yl)-3-(1H-1,2,4-triazol-1-yl)propan-2-ol] | 20.3 ± 3.6 | 5.2 ± 0.3 | 75 (≈ 27.1 µg/mL) | > 75 | > 75 | > 75 | > 75 | > 75 | > 75 | > 75 | 75 (≈ 27.1 µg/mL) | > 75 | – | –
3 | OC(CN1CCOCC1)Cn1c2ccc(Cl)cc2c2cc(Cl)ccc21 (stereo not shown) [Compound 7, 1-(3,6-dichloro-9H-carbazol-9-yl)-3-morpholinopropan-2-ol] | – | 6 ± 1.3 | 75 (≈ 28.4 µg/mL) | 75 (≈ 28.4 µg/mL) | > 75 | > 75 | > 75 | > 75 | > 75 | > 75 | 24 (≈ 9.1 µg/mL) | 24 (≈ 9.1 µg/mL) | 19.6 ± 7.2 | –
4 | CN1CCN(CC(O)Cn2c3ccc(Cl)cc3c3cc(Cl)ccc32)CC1 (stereo not shown) [Compound 8, 1-(3,6-dichloro-9H-carbazol-9-yl)-3-(4-methylpiperazin-1-yl)propan-2-ol] | 36.8 ± 12.2 | 9.7 ± 3.3 | 68 (≈ 26.7 µg/mL) | 75 (≈ 29.4 µg/mL) | 42 (≈ 16.5 µg/mL) | 75 (≈ 29.4 µg/mL) | 58 (≈ 22.8 µg/mL) | 75 (≈ 29.4 µg/mL) | 75 (≈ 29.4 µg/mL) | > 75 | 7.5 (≈ 2.94 µg/mL) | 7.5 (≈ 2.94 µg/mL) | – | –
5 | O=C(O)C1CCN(CC(O)Cn2c3ccc(Cl)cc3c3cc(Cl)ccc32)CC1 (stereo not shown) [Compound 9, 1-(3-(3,6-dichloro-9H-carbazol-9-yl)-2-hydroxypropyl)piperidine-4-carboxylic acid] | 97.6 ± 25.7 | 4 ± 0.7 | > 75 | > 75 | > 75 | > 75 | > 75 | > 75 | > 75 | > 75 | > 75 | > 75 | – | pronounced selectivity towards Na^+,K^+-ATPase
6 | CCC(C)NCC(O)Cn1c2ccc(Cl)cc2c2cc(Cl)ccc21 (stereo not shown) [Compound 10, 1-(sec-butylamino)-3-(3,6-dichloro-9H-carbazol-9-yl)propan-2-ol] | – | 1 ± 0.2 | 3.7 (≈ 1.35 µg/mL) | 3.8 (≈ 1.39 µg/mL) | 1.2 (≈ 0.438 µg/mL) | 3.8 (≈ 1.39 µg/mL) | 5.6 (≈ 2.05 µg/mL) | 7.9 (≈ 2.89 µg/mL) | 2.9 (≈ 1.06 µg/mL) | 3.8 (≈ 1.39 µg/mL) | 0.4 (≈ 0.146 µg/mL) | 1.2 (≈ 0.438 µg/mL) | 0.3 ± 0.1 | –
